Values of other authors as cited in US20240173272A1 (LUPIN ATLANTIS HOLDINGS SA, priority 2021, published 2024).

Tests used:
[1] = weak base
[2] = oral administration

In the case of Cc1cccc(C)c1OCC(C)N (centres unmarked) [Mexiletine], the pKa [1] is given as “about 9.1” and the bioavailability [2] is given as “about 90%”.
